Here are results for 24 molecules from ChEMBL document CHEMBL1136501 (Bioorg Med Chem Lett, 2003).

In test [1] the target is T1, Sodium-dependent noradrenaline transporter (Homo sapiens, UniProt P23975). Nature of the test: Inhibition of [3H]nisoxetine binding to norepinephrine transporter. The settings on record: concentration not given here.
For test [2], the target named is T2, Sodium-dependent serotonin transporter (Homo sapiens, UniProt P31645). The experiment in a line: Binding affinity at serotonin transporter, using [3H]citalopram as radioligand at a concentration of 0.1 uM.
Target sequence in this assay (P31645 whole entry, looked up): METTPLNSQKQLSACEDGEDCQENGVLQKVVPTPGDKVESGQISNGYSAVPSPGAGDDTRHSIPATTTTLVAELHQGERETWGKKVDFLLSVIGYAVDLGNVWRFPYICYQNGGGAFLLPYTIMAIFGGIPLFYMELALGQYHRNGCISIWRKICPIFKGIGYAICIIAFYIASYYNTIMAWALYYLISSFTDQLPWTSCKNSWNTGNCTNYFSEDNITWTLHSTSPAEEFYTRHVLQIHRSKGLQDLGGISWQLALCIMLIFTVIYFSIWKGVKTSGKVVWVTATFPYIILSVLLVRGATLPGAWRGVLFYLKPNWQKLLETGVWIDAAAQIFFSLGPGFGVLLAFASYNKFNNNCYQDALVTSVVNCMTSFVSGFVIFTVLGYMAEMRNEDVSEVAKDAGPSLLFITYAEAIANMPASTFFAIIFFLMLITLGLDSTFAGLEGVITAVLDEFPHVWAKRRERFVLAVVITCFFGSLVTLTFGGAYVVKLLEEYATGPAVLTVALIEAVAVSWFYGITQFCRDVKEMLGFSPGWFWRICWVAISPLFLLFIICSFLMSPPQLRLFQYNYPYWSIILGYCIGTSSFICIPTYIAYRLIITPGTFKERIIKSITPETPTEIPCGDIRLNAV
For test [3], the target named is T2, Sodium-dependent serotonin transporter.
Target sequence in this assay (P31645 whole entry): as the sequence (P31645 whole entry, looked up) above
Description: Binding affinity to serotonin transporter, using [3H]citalopram as radioligand
Test [4] concerns the target T1, Sodium-dependent noradrenaline transporter.
Description: Inhibition of [3H]nisoxetine binding to norepinephrine (NE) transporter
For test [5], the species on record is Rattus norvegicus.
Description: Inhibition of norepinephrine uptake into rat synaptosomes
Test [6] is filed under the species Rattus norvegicus. The source holds these as a separate data set.
Description: Inhibition of serotonin uptake into rat synaptosomes
Test [7] is filed under the species Rattus norvegicus. The source holds these as a separate data set.
Description: Inhibition of dopamine uptake into rat synaptosomes

T1 sequence (P23975 whole entry): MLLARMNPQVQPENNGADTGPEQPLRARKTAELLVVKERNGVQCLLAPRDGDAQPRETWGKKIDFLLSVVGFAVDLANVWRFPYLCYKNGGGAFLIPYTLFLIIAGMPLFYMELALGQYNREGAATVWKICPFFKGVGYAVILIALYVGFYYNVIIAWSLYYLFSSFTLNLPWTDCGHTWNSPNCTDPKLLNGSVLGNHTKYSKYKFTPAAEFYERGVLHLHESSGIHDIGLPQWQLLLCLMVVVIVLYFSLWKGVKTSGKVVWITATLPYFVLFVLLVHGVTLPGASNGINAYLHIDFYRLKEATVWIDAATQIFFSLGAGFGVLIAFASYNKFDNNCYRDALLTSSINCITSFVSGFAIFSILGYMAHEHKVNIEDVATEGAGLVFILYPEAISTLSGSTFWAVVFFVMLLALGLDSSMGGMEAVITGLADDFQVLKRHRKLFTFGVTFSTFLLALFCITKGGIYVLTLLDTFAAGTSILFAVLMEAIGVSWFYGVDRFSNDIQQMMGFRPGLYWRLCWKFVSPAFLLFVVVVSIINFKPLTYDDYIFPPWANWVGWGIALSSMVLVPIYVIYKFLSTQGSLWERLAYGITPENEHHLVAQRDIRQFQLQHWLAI

In general, inhibition refers to the relative decrease from the control value, in per cent. High values mean a strong effect, low ones a weak effect. `CNCCCCOc1ccc2ccccc2c1`: the inhibition in test [1] came out at 17%; in test [2] it was 32%.
One may read the Ki as the equilibrium dissociation constant of an inhibitor or competing ligand from its target. Take `CNCCC(Oc1cccc2ccccc12)c1ccc(OC)cc1` (centres undefined): the results for the Ki in test [3] and in test [4] were 0.0035 µM and 0.074 µM, respectively.
As to `CNCCCCCOc1cccc2ccccc12`, the inhibition in test [1] came out at 23%; in test [2], 35.5%.
For the molecule `CNCCC(Oc1cccc2ccccc12)c1ccc(Br)cc1` (centres undefined), the Ki in test [3] came out at 0.0041 µM; in test [4], 0.16 µM.
Consider `CNCCC(Oc1cccc2ccccc12)c1ccc(C(F)(F)F)cc1` (centres undefined), for which the Ki in test [3] came to 0.0145 µM. Moreover, the inhibition in test [1] came to 55%.
On to `CNCCCOc1ccc2ccccc2c1`, for which the inhibition came out at 39% in test [1] and 23% in test [2].
Consider `CNCCC(Oc1cccc2ccccc12)c1cccc(C)c1` (centres undefined), for which the Ki in test [3] turned out to be 0.004 µM; in test [4], 0.04 µM.
Taken in the same sequence, the figures for `CNCCC(Oc1cccc2ccccc12)c1nccs1` (centres undefined) were 0.0064 µM and 0.055 µM.
With `CNCCC(Oc1cccc2ccccc12)c1ccccc1` (centres undefined), the inhibitory constant (Ki) came to 0.0024 µM in test [3] and 0.02 µM in test [4].
On the same counts, the results for `CNCCC(Oc1cccc2ccccc12)c1cccc(OC)c1` (centres undefined) are 0.0022 µM and 0.081 µM.
On the same counts, the results for `CNCCC(Oc1cccc2ccccc12)c1ccsc1` (centres undefined) are 0.0011 µM and 0.021 µM.
Taken in the same sequence, the figures for `CNCCC(Oc1cccc2ccccc12)c1ccccc1C` (centres undefined) were 0.002 µM and 0.11 µM.
Turning to `CNCCC(Oc1cccc2ccccc12)c1ccc(C)cc1` (centres undefined), the Ki amounted to 0.0021 µM in test [3] and 0.036 µM in test [4].
As for `CNCC[C@@H](Oc1ccccc1C)c1ccccc1` [ATOMOXETINE], the Ki in the test listed under Rattus norvegicus [5] was 0.004 µM; in the test listed under Rattus norvegicus [6], 1.5 µM; in the test filed under Rattus norvegicus [7], 2 µM.
As for `CNCCC(Oc1cccc2ccccc12)c1ccccc1C(F)(F)F` (centres undefined), the Ki in test [3] was 0.01 µM. The inhibition in test [1] worked out at 38%.
For the molecule `CNCCOc1cccc2ccccc12`, the values for the inhibition in test [1] and in test [2] were 17% and 2%, respectively.
In the case of `CNCCC(Oc1cccc2ccccc12)c1cccc(C(F)(F)F)c1` (centres undefined), the Ki in test [3] was found to be 0.019 µM; in test [4] it was 0.07 µM.
`CNCCCOc1cccc2ccccc12` had a Ki in test [3] of 0.075 µM. In test [1], this molecule returned an inhibition of 25%.
Consider `CNCCC(Oc1cccc2ccccc12)c1cccc(Br)c1` (centres undefined), for which the Ki stood at 0.0076 µM in test [3] and 0.067 µM in test [4].
The molecule `CNCCC(Oc1cccc2ccccc12)c1ccccc1OC` (centres undefined) gave a Ki in test [3] of 0.0023 µM. Further, the inhibition in test [1] amounted to 56%.
On the same counts, the results for `CNCCCCOc1cccc2ccccc12` are 0.031 µM and 25.5%.
As for `CNCCC(Oc1cccc2ccccc12)c1ccco1` (centres undefined), the Ki in test [3] is 0.0007 µM; in test [4] it was 0.02 µM.
Taken in the same sequence, the figures for `CNCCC(Oc1cccc2ccccc12)c1ccc(Cl)cc1` (centres undefined) were 0.0038 µM and 0.078 µM.
On the same counts, the results for `CNCCC(Oc1cccc2ccccc12)c1ccc(F)cc1` (centres undefined) are 0.00095 µM and 0.042 µM.
